Measurements as given in ChEMBL document CHEMBL4229492, “Design, Synthesis, and Biological Evaluation of Novel 7-[(3 aS,7 aS)-3 a-Aminohexahydropyrano[3,4- c]pyrrol-2(3 H)-yl]-8-methoxyquinolines with Potent Antibacterial Activity against Respiratory Pathogens” (J Med Chem, 2018).
≈ marks a conversion by molar mass, not a printed value.

Legend:
hERG (KCNH2) [1] = target: T1, hERG (KCNH2) (Homo sapiens, UniProt Q12809); assay: Inhibition of human ERG expressed in CHOK1 cells at 30 uM; assay type: cell-based; conditions: CHOK1 cells that express human ERG
T1 sequence (Q12809 whole entry): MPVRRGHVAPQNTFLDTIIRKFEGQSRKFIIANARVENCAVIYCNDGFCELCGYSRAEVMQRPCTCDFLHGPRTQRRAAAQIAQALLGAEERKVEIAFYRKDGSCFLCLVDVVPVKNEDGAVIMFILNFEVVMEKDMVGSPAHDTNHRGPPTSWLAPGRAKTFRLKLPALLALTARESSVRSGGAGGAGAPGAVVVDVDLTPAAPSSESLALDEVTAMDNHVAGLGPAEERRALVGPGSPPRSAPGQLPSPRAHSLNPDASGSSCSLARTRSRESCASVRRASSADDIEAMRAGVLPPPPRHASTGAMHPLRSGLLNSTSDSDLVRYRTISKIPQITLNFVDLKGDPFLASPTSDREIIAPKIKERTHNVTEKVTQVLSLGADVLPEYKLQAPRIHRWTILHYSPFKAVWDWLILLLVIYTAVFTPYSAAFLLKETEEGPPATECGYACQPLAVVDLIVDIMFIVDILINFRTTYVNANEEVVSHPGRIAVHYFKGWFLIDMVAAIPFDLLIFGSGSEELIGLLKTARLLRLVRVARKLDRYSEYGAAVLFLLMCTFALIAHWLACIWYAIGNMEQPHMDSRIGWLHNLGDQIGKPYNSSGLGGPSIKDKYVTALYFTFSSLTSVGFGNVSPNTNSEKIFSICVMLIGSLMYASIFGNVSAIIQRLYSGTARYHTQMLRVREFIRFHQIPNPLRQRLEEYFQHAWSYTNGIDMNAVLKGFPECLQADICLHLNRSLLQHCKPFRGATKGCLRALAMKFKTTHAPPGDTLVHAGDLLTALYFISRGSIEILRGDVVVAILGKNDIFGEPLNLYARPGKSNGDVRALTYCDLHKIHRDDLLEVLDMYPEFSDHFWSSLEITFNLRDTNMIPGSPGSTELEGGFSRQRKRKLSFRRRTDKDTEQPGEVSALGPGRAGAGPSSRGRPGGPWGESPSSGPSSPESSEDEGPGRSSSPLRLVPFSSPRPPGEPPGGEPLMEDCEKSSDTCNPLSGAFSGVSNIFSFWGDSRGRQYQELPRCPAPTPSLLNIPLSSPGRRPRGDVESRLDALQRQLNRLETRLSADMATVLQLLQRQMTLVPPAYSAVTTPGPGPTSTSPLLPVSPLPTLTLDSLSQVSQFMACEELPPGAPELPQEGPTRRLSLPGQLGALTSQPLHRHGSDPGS

Escherichia coli [2] = assay: Antibacterial activity against Escherichia coli 5-037042'98 harboring gyrase A Asp87Gly mutation after 18 hrs by two-fold microbroth dilution method; assay type: functional; conditions: 5-037042'98, 18 h
[3] = Primary phase half life in cynomolgus monkey serum at 5 mg/kg, iv; assay type: ADME, organism-based, Macaca fascicularis; conditions: read-out: alphat1/2 (converted)
Staphylococcus aureus [4] = assay: Antibacterial activity against methicillin-resistant Staphylococcus aureus after 18 hrs by two-fold microbroth dilution method; assay type: functional
Mus musculus [5] = assay: Toxicity in Slc:ddY mouse assessed as induction of mortality at 15 ug/5 uL/mouse administered intracisternally and measured over 30 mins post dose; assay type: organism-based; conditions: in vivo, other, 0.5 h
Streptococcus pneumoniae [6] = assay: Antibacterial activity against penicillin-susceptible Streptococcus pneumoniae J24 after 18 hrs by two-fold microbroth dilution method; assay type: functional; conditions: J24, 18 h
Mus musculus [7] = assay: Toxicity in Slc:ddY mouse assessed as induction of mortality at 50 ug/5 uL/mouse administered intracisternally and measured over 30 mins post dose; assay type: organism-based; conditions: in vivo, other, 0.5 h
Escherichia coli [8] = assay: Antibacterial activity against Escherichia coli NIHJ after 18 hrs by two-fold microbroth dilution method; assay type: functional
[9] = Cmax in Crj:CD rat at 5 mg/kg, po; assay type: ADME, organism-based; set-up: dose 5 mg/kg, route oral; conditions: in vivo
Streptococcus pyogenes = assay: Antibacterial activity against Streptococcus pyogenes ATCC 12344 after 18 hrs by two-fold microbroth dilution method; assay type: functional; conditions: ATCC 12344, 18 h
Mus musculus [10] = assay: Toxicity in Slc:ddY mouse assessed as induction of mortality at 50 ug/5 uL/mouse administered intracisternally 30 mins after 400 mg/kg, po BPAA dosing and measured over 30 mins post dose; assay type: organism-based; conditions: in vivo, 0.5 h
Mus musculus [11] = assay: Toxicity in Slc:ddY mouse assessed as induction of convulsion at 5 ug/5 uL/mouse administered intracisternally and measured over 30 mins post dose; assay type: organism-based; conditions: in vivo, other, 0.5 h
Enterococcus faecalis = assay: Antibacterial activity against Enterococcus faecalis ATCC 19433 after 18 hrs by two-fold microbroth dilution method; assay type: functional; conditions: ATCC 19433, 18 h
[12] = Metabolic stability in human microsomes at 1 uM assessed as compound remaining after 30 mins; assay type: ADME, Microsome; conditions: read-out: Stability
Streptococcus pneumoniae [13] = assay: Antibacterial activity against penicillin-resistant Streptococcus pneumoniae 033806 after 18 hrs by two-fold microbroth dilution method; assay type: functional; conditions: Streptococcus pneumoniae, 033806, 18 h
Mus musculus [14] = assay: Toxicity in Slc:ddY mouse assessed as induction of mortality at 5 ug/5 uL/mouse administered intracisternally and measured over 30 mins post dose; assay type: organism-based; conditions: in vivo, other, 0.5 h
Haemophilus influenzae = assay: Antibacterial activity against Haemophilus influenzae ATCC 49247 after 18 hrs by two-fold microbroth dilution method; assay type: functional; conditions: ATCC 49247, 18 h
Mus musculus [15] = assay: Toxicity in Slc:ddY mouse assessed as induction of mortality at 5 ug/5 uL/mouse administered intracisternally 30 mins after 400 mg/kg, po BPAA dosing and measured over 30 mins post dose; assay type: organism-based; conditions: in vivo, 0.5 h
Staphylococcus aureus [16] = assay: Antibacterial activity against Staphylococcus aureus SMITH after 18 hrs by two-fold microbroth dilution method; assay type: functional
Bacillus spizizenii = assay: Antibacterial activity against Bacillus subtilis ATCC 6633 after 18 hrs by two-fold microbroth dilution method; assay type: functional; conditions: ATCC 6633, 18 h
hERG (KCNH2) [17] = target: T1, hERG (KCNH2); assay: Inhibition of human ERG expressed in CHOK1 cells at 100 uM; assay type: cell-based; conditions: CHOK1 cells that express human ERG
[18] = Cmin in cynomolgus monkey serum at 5 mg/kg, iv after 5 mins; assay type: ADME, organism-based, Macaca fascicularis; conditions: read-out: Cmin
Escherichia coli [19] = assay: Antibacterial activity against quinolone-resistant Escherichia coli DNS5101 after 18 hrs by two-fold microbroth dilution method; assay type: functional; conditions: DNS5101, 18 h
Mus musculus [20] = assay: Toxicity in Slc:ddY mouse assessed as induction of convulsion at 15 ug/5 uL/mouse administered intracisternally 30 mins after 400 mg/kg, po BPAA dosing and measured over 30 mins post dose; assay type: organism-based; conditions: in vivo, 0.5 h
[21] = AUC (0 to 8 hrs) in cynomolgus monkey serum at 5 mg/kg, iv; assay type: ADME, organism-based, Macaca fascicularis; set-up: dose 5 mg/kg, time < 8 hr, route intravenous
[22] = AUC (0 to 8 hrs) in Crj:CD rat at 5 mg/kg, po; assay type: ADME, organism-based; set-up: time < 8 hr, dose 5 mg/kg, route oral; conditions: in vivo
Moraxella catarrhalis = assay: Antibacterial activity against Moraxella catarrhalis ATCC 25238 after 18 hrs by two-fold microbroth dilution method; assay type: functional; conditions: ATCC 25238, 18 h
Mus musculus [23] = assay: Toxicity in Slc:ddY mouse assessed as induction of convulsion at 5 ug/5 uL/mouse administered intracisternally 30 mins after 400 mg/kg, po BPAA dosing and measured over 30 mins post dose; assay type: organism-based; conditions: in vivo, 0.5 h
Mus musculus [24] = assay: Toxicity in Slc:ddY mouse assessed as induction of mortality at 15 ug/5 uL/mouse administered intracisternally 30 mins after 400 mg/kg, po BPAA dosing and measured over 30 mins post dose; assay type: organism-based; conditions: in vivo, 0.5 h
Klebsiella pneumoniae = assay: Antibacterial activity against Klebsiella pneumoniae TYPE 1 after 18 hrs by two-fold microbroth dilution method; assay type: functional; conditions: TYPE 1, 18 h
CYP3A4 = CYP3A4 (Homo sapiens, UniProt P08684); assay: Inhibition of CYP3A4 in human liver microsomes at 10 uM assessed as remaining activity by measuring 1'-hydroxylation of midazolam after 30 mins; assay type: ADME; conditions: probe midazolam (1'-hydroxylation), read-out: Activity
CYP3A4, sequence (P08684 whole entry): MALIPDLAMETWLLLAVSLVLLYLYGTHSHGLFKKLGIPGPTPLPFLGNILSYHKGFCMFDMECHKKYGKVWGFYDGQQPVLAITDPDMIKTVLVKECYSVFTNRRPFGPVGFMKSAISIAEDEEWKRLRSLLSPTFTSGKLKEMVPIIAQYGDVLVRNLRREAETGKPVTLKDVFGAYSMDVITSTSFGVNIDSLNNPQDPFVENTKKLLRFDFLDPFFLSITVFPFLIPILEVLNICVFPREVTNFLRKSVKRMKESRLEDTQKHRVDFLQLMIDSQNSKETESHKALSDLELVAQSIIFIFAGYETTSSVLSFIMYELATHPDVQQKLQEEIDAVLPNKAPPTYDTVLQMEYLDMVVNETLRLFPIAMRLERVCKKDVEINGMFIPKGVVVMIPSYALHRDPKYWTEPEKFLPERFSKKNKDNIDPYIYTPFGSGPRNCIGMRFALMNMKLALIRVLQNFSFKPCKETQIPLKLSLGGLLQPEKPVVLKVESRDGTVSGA

Albumin = Albumin (Homo sapiens, UniProt P02768); assay: Binding affinity to human serum albumin after 60 mins at 37 degC by ultrafiltration-based LC-MS analysis; assay type: ADME; conditions: read-out: PB (converted)
Albumin, sequence (P02768 whole entry): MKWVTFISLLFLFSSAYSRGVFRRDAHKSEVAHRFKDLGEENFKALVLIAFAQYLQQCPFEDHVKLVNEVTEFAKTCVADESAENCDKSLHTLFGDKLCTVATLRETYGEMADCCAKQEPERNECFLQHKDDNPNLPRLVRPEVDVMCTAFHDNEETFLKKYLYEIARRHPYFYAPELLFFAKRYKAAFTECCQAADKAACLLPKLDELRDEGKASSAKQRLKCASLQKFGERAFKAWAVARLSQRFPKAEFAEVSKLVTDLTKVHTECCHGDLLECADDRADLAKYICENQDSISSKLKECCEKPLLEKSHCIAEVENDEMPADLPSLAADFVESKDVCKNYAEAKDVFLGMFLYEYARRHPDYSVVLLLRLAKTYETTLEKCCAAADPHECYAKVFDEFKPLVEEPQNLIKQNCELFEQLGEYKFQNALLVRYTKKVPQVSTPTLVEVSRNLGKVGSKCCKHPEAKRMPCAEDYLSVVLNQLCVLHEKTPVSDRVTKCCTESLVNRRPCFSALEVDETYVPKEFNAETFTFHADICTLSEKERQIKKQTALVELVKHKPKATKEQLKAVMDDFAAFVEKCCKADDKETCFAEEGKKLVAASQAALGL

Staphylococcus aureus [25] = assay: Antibacterial activity against levofloxacin and methicillin-resistant Staphylococcus aureus 870307 after 18 hrs by two-fold microbroth dilution method; assay type: functional; conditions: Staphylococcus aureus, 870307, 18 h
[26] = Drug recovery in cynomolgus monkey urine at 5 mg/kg, iv after 24 hrs; assay type: ADME, organism-based, Macaca fascicularis; conditions: read-out: Drug recovery
Streptococcus pneumoniae [27] = assay: Antibacterial activity against penicillin-susceptible Streptococcus pneumoniae J41 after 18 hrs by two-fold microbroth dilution method; assay type: functional; conditions: J41, 18 h
Pseudomonas aeruginosa = assay: Antibacterial activity against Pseudomonas aeruginosa PAO1 after 18 hrs by two-fold microbroth dilution method; assay type: functional; conditions: PAO1, 18 h
Staphylococcus aureus [28] = assay: Antibacterial activity against levofloxacin and methicillin-resistant Staphylococcus aureus 890325-1 after 18 hrs by two-fold microbroth dilution method; assay type: functional; conditions: 890325-1, 18 h
Mus musculus [29] = assay: Toxicity in Slc:ddY mouse assessed as induction of convulsion at 15 ug/5 uL/mouse administered intracisternally and measured over 30 mins post dose; assay type: organism-based; conditions: in vivo, other, 0.5 h

Compound `COc1c(N2C[C@@H]3CCOC[C@@]3(N)C2)c(F)cc2c(=O)c(C(=O)O)cn([C@@H]3C[C@@H]3F)c12` has an inhibition at 30 µM (hERG (KCNH2) [1]) of -2.2%, an MIC (Escherichia coli [2]) of 0.05 µg/mL (≈ 0.115 µM) and a half-life [3] of 3.5 h. The MIC (Staphylococcus aureus [4]) was 0.008 to 8 µg/mL, the MIC50 (Staphylococcus aureus [4]; Staphylococcus aureus, 18 h) was 0.015 µg/mL (≈ 0.0344 µM) and the MIC90 (Staphylococcus aureus [4]; Staphylococcus aureus, 18 h) was 0.5 µg/mL (≈ 1.15 µM). For the same compound, the Activity (Mus musculus [5]) was “Non-Toxic”, the MIC (Streptococcus pneumoniae [6]) was 0.1 µg/mL (≈ 0.23 µM) and the Activity (Mus musculus [7]) was “Non-Toxic”. It also gave an MIC (Escherichia coli [8]) of 0.006 µg/mL (≈ 0.0138 µM), a Cmax [9] of 880 ng/mL and an MIC (Streptococcus pyogenes) of 0.05 µg/mL (≈ 0.115 µM). The Activity (Mus musculus [10]) was “Non-Toxic”, the Activity (Mus musculus [11]) was “Non-Toxic” and the MIC (Enterococcus faecalis) was 0.2 µg/mL (≈ 0.459 µM). The remaining at 0.5 h, 1 µM [12] was 100%, the MIC (Streptococcus pneumoniae [13]) was 0.12 µg/mL (≈ 0.276 µM) and the Activity (Mus musculus [14]) was “Non-Toxic”. The MIC (Haemophilus influenzae) was 0.006 µg/mL (≈ 0.0138 µM), the Activity (Mus musculus [15]) was “Non-Toxic” and the MIC (Staphylococcus aureus [16]) was 0.006 µg/mL (≈ 0.0138 µM). It also gave an MIC (Bacillus spizizenii) of 0.006 µg/mL (≈ 0.0138 µM), an inhibition at 100 µM (hERG (KCNH2) [17]) of -2.5% and a concentration at 5 min [18] of 7000 ng/mL. For the same compound, the MIC (Escherichia coli [19]) was 1.56 µg/mL (≈ 3.58 µM), the Activity (Mus musculus [20]) was “Non-Toxic” and the AUC(0-t) at 8 h [21] was 22900 ng·h/mL. For the same compound, the AUC(0-t) at 8 h [22] was 3140 ng·h/mL, the MIC (Moraxella catarrhalis) was 0.025 µg/mL (≈ 0.0574 µM) and the Activity (Mus musculus [23]) was “Non-Toxic”. For the same compound, the Activity (Mus musculus [24]) was “Non-Toxic”, the MIC (Klebsiella pneumoniae) was 0.05 µg/mL (≈ 0.115 µM) and the activity at 0.5 h, 10 µM (CYP3A4) was 97.4%. It also gave a fraction unbound at 1 h (Albumin) of 1, an MIC (Staphylococcus aureus [25]) of 0.2 µg/mL (≈ 0.459 µM) and a dose excreted at 24 h [26] of 65%. For the same compound, the MIC (Streptococcus pneumoniae [27]) was 0.05 µg/mL (≈ 0.115 µM), the MIC (Pseudomonas aeruginosa) was 0.78 µg/mL (≈ 1.79 µM) and the MIC (Staphylococcus aureus [28]) was 0.2 µg/mL (≈ 0.459 µM). For the same compound, the Activity (Mus musculus [29]) was “Non-Toxic”.
